Consider 8 compounds from DBAASP.

Test systems include Candida albicans MDM8; Escherichia coli SBS 363; Micrococcus luteus A270; Escherichia coli UB1005; Escherichia coli W3110; Staphylococcus aureus.
Common to all, as to experiment: ≥ marks a high value that may be exact or a test limit, other limits are often not marked, values filed in µg/mL are converted to µM
Assay [1] has as its system Pseudomonas aeruginosa ATCC 9027.
Assay [2] relates to Candida albicans FRR 5580.
The test system of assay [3] is Staphylococcus aureus ATCC 25923.
Assay [4] deals with Escherichia coli ATCC 25922.
Assay [5] deals with Acinetobacter baumannii ATCC 17978.
For assay [6], the system named is Escherichia coli NCTC 12923.
Assay [7] concerns Staphylococcus aureus ATCC 9144.
The subject of assay [8] is Klebsiella pneumoniae NCTC 13368.
Assay [9] concerns Enterobacter cloacae beta-12.
For assay [10], the system named is Candida tropicalis IOC 4560.
For assay [11], the system named is Bacillus megaterium ATCC 10778.
Assay [12] concerns Pseudomonas aeruginosa PAO1.
In assay [13] the test system is Staphylococcus aureus USA 300.
Assay [14] relates to Pseudomonas aeruginosa NCTC 13437.
Assay [15] concerns Staphylococcus aureus ATCC 29213.
The test system of assay [16] is Serratia marcescens ATCC 4112.
Assay [17] deals with Bacillus subtilis ATCC 6633.
The subject of assay [18] is Pseudomonas aeruginosa NCIB 10421.
Assay [19] deals with Staphylococcus aureus ATCC 33591.
Assay [20] concerns Escherichia coli ATCC 11229.
In assay [21] the test system is Lacticaseibacillus rhamnosus 1.0925.
Assay [22] deals with Staphylococcus epidermidis ATCC 12228.
Assay [23] concerns Lacticaseibacillus rhamnosus 1.0911.
Assay [24] has as its system Lacticaseibacillus rhamnosus 1.0386.
For assay [25], the system named is Pseudomonas aeruginosa ATCC 27853.
Assay [26] relates to Staphylococcus aureus ATCC 43300.
Assay [27] has as its system Lactiplantibacillus plantarum 8014.
Assay [28] deals with Lacticaseibacillus rhamnosus 1.0385.
The subject of assay [29] is Lacticaseibacillus rhamnosus 7469.
Assay [30] concerns Klebsiella pneumoniae ATCC BAA-1705.

≈ marks a conversion by molar mass, not a printed value. A value given as a limit tells only on which side of the number the result lay.

Broadly, the MIC is the lowest concentration found to suppress growth. Read a low MIC as greater potency.

As for `NCCCC[C@H](NC(=O)[C@H](Cc1c[nH]c2ccccc12)NC(=O)[C@H](Cc1c[nH]c2ccccc12)NC(=O)[C@H](CCCCN)NC(=O)[C@H](Cc1c[nH]c2ccccc12)NC(=O)[C@H](Cc1c[nH]c2ccccc12)NC(=O)[C@H](CCCN=C(N)N)NC(=O)[C@@H](N)Cc1c[nH]c2ccccc12)C(N)=O` [WRWWKWWK], the minimum inhibitory concentration (MIC) is 23.5 µM (≈ 32 µg/mL) in assay [1], not below 47 µM in assay [2], 5.88 µM (≈ 7.99 µg/mL) in assay [3] and 2.94 µM (≈ 4 µg/mL) in assay [4].

On to `CC[C@H](C)[C@H](NC(=O)[C@H](CCCCN)NC(=O)[C@H](CCC(=O)O)NC(=O)[C@H](Cc1c[nH]c2ccccc12)NC(=O)[C@H](Cc1ccccc1)NC(=O)[C@H](CCCCN)NC(=O)CNC(=O)[C@H](CC(C)C)NC(=O)[C@H](C)N)C(=O)N[C@@H](CCCCN)C(=O)N[C@@H](CO)C(=O)N[C@@H](CC(C)C)C(=O)N[C@@H](Cc1ccccc1)C(N)=O` [ALGKFWEKIKSLF], for which the MIC in assay [5] was determined as 2.55 µM (≈ 4 µg/mL); in assay [6], 5.11 µM (≈ 8 µg/mL); against Candida albicans MDM8, 3.13 µM (≈ 4.9 µg/mL); in assay [7], 2.55 µM (≈ 4 µg/mL); in assay [8], 10.2 µM (≈ 16 µg/mL); in assay [9], 6.25 µM (≈ 9.79 µg/mL). The MIC against Escherichia coli SBS 363 is 1.56 µM (≈ 2.44 µg/mL); in assay [10], 0.78 µM (≈ 1.22 µg/mL); in assay [11] it was 0.78 µM (≈ 1.22 µg/mL); in [12], more than 81.7 µM; in assay [13] it was 10.2 µM (≈ 16 µg/mL); in assay [14] it was not below 40.8 µM. Besides, the MIC is 3.13 µM (≈ 4.9 µg/mL) in [15]; 0.36 µM (≈ 0.564 µg/mL) in assay [16]; 0.78 µM (≈ 1.22 µg/mL) in assay [17]; 0.78 µM (≈ 1.22 µg/mL) against Micrococcus luteus A270; 12.5 µM (≈ 19.6 µg/mL) in assay [18].

`CC[C@H](C)[C@H](NC(=O)[C@H](CCCN=C(N)N)NC(=O)[C@H](CCSC)NC(=O)[C@H](C)NC(=O)[C@H](CCCN=C(N)N)NC(=O)CNC(=O)[C@H](C)NC(=O)[C@@H](NC(=O)[C@@H](N)CO)C(C)C)C(=O)NCC(=O)N[C@@H](CC(C)C)C(=O)N[C@@H](CCCN=C(N)N)C(=O)N[C@@H](Cc1ccccc1)C(=O)N[C@H](C(=O)N[C@@H](CC(C)C)C(=O)N[C@@H](CCSC)C(=O)O)C(C)C` [SVAGRAMRIGLRFVLM]: the MIC in [3] is 36 µM (≈ 64 µg/mL); in assay [19], not below 36 µM; in assay [15], 36 µM (≈ 64 µg/mL); in assay [20], not below 36 µM.

Take `C[C@@H](O)[C@H](NC(=O)[C@H](Cc1c[nH]c2ccccc12)NC(=O)[C@H](Cc1c[nH]c2ccccc12)NC(=O)[C@H](Cc1c[nH]c2ccccc12)NC(=O)[C@@H](NC(=O)[C@H](Cc1c[nH]c2ccccc12)NC(=O)[C@H](CCCN=C(N)N)NC(=O)[C@@H](N)CCCN=C(N)N)[C@@H](C)O)C(=O)N[C@@H](Cc1c[nH]c2ccccc12)C(=O)N[C@@H](CCCN=C(N)N)C(=O)N[C@@H](CCCN=C(N)N)C(N)=O` [RRWTWWWTWRR]: the MIC was not below 64 µM in assay [21]; 2 µM (≈ 3.55 µg/mL) in [22]; not below 64 µM in assay [23]; not below 64 µM in assay [24]; 4 µM (≈ 7.1 µg/mL) in [25]; 2 µM (≈ 3.55 µg/mL) against Escherichia coli UB1005. Besides, the MIC was 4 µM (≈ 7.1 µg/mL) in [26], not below 64 µM in [27], not below 64 µM in assay [28] and not below 64 µM in assay [29].

Turning to `CC[C@H](C)[C@H](N)C(=O)N[C@@H](CC(C)C)C(=O)NCC(=O)N[C@@H](CCCCN)C(=O)N[C@H](C(=O)N[C@@H](Cc1c[nH]c2ccccc12)C(=O)N[C@@H](CCC(=O)O)C(=O)N1CCC[C@H]1C(=O)N[C@H](C(=O)N[C@@H](CCCCN)C(=O)N[C@@H](CO)C(=O)N[C@@H](CC(C)C)C(=O)N[C@@H](Cc1ccccc1)C(N)=O)[C@@H](C)CC)[C@@H](C)CC` [ILGKIWEPIKSLF], the MIC is not below 50 µM in the assay with Candida albicans MDM8; not below 50 µM in assay [9]; not below 50 µM against Escherichia coli SBS 363; 12.5 µM (≈ 19.3 µg/mL) in assay [10]; 3.13 µM (≈ 4.83 µg/mL) in assay [11]; 50 µM (≈ 77.1 µg/mL) in assay [15]. In addition, the MIC is 3.13 µM (≈ 4.83 µg/mL) in assay [16], 25 µM (≈ 38.6 µg/mL) in [17], 12.5 µM (≈ 19.3 µg/mL) against Micrococcus luteus A270 and not below 50 µM in [18].

Regarding `NC(=O)[C@H](CCCN=C(N)N)NC(=O)[C@H](CCCN=C(N)N)NC(=O)[C@H](Cc1c[nH]c2ccccc12)NC(=O)[C@H](CS)NC(=O)[C@H](Cc1c[nH]c2ccccc12)NC(=O)[C@H](Cc1c[nH]c2ccccc12)NC(=O)[C@H](Cc1c[nH]c2ccccc12)NC(=O)[C@H](CS)NC(=O)[C@H](Cc1c[nH]c2ccccc12)NC(=O)[C@H](CCCN=C(N)N)NC(=O)[C@@H](N)CCCN=C(N)N` [RRWCWWWCWRR], the MIC in [21] is not below 64 µM; in [22], 8 µM (≈ 14.2 µg/mL); in assay [23], not below 64 µM; in assay [24], 16 µM (≈ 28.5 µg/mL); in assay [25], 8 µM (≈ 14.2 µg/mL); against Escherichia coli UB1005 it was 16 µM (≈ 28.5 µg/mL). For the same compound, the MIC in assay [26] was 4 µM (≈ 7.12 µg/mL); in assay [27] it was 8 µM (≈ 14.2 µg/mL); in [28], not below 64 µM; in [4], more than 64 µM; in assay [29] it was not below 64 µM; in [15] it was 8 µM (≈ 14.2 µg/mL).

As for `CC[C@H](C)[C@H](NC(=O)[C@H](CCCCN)NC(=O)[C@H](CCCCN)NC(=O)[C@H](Cc1ccc(O)cc1)NC(=O)[C@H](CCCCN)NC(=O)[C@H](CC(C)C)NC(=O)[C@H](CC(C)C)NC(=O)[C@H](CCCCN)NC(=O)[C@H](CC(C)C)NC(=O)CNC(=O)[C@H](Cc1c[nH]c2ccccc12)NC(=O)[C@H](CS)NC(=O)[C@H](C)NC(=O)[C@H](Cc1c[nH]c2ccccc12)NC(=O)[C@H](CCCN=C(N)N)NC(=O)[C@@H](N)Cc1c[nH]c2ccccc12)C(=O)N[C@@H](Cc1ccc(O)cc1)C(=O)O` [WRWACWGLKLLKYKKIY], the MIC in the assay on Escherichia coli W3110 is 1 µM (≈ 2.26 µg/mL); in [30], not below 64 µM.

Consider `NCCCC[C@H](NC(=O)[C@H](Cc1c[nH]c2ccccc12)NC(=O)[C@H](Cc1c[nH]c2ccccc12)NC(=O)[C@H](CCCN=C(N)N)NC(=O)[C@@H](N)Cc1c[nH]c2ccccc12)C(=O)N[C@@H](Cc1c[nH]c2ccccc12)C(=O)N[C@@H](Cc1c[nH]c2ccccc12)C(N)=O` [WRWWKWW], for which the minimum inhibitory concentration (MIC) is 25.9 µM (≈ 32 µg/mL) in assay [1]; not below 51.9 µM in assay [2]; 6.49 µM (≈ 7.99 µg/mL) in assay [3]; 6.49 µM (≈ 7.99 µg/mL) against Staphylococcus aureus; 3.24 µM (≈ 4 µg/mL) in assay [4].
